# Measured values published in US4086350A, “Pharmaceutical compositions and method of producing anti-psychotic activity without extrapyramidal symptoms” (priority 1975, dated 1978).
# What was measured:
# [1] = system: amphetamine-induced rotation vs. avoidance acquisition; assay: R/A ratio: ED50 amphetamine-induced rotation / ED50 avoidance acquisition; type: in vivo, rat; conditions: ratio of i.p. ED50 values in rats
# Experimental: (§1) To predict the potential ability of a drug to cause EPS, the ratio of its ED50 (i.p.) for antagonism of amphetamine-induced rotation to its ED50 (i.p.) for blockade of shock avoidance acquisition in the rat, a procedure for assessing antipsychotic activity, (R/A ratio) is calculated.
# extrapyramidal symptoms = conditions: compared with chlorpromazine; cited from earlier work
# [2] = system: shock avoidance acquisition in the rat; assay: Antagonism of shock avoidance acquisition in the rat (antipsychotic activity); type: in vivo; conditions: ip, rats, i.p., piperidylidene derivatives (Table II), read-out: Antagonism of Avoidance Acquisition, Rats, ED50 (A)
# Experimental: as §1
# [3] = system: striatal dopamine receptors; assay: Antagonism of amphetamine-induced rotation in rats with unilateral substantia nigra lesions (Ungerstedt); type: in vivo, rat; conditions: i.p., piperidylidene derivatives (Table II)
# Excerpt: There is evidence that antipsychotic drugs cause EPS by interfering with neurotransmission in a nigrostriatal dopaminergic pathway. It is thought that they block dopamine receptors in the neostriatum. Therefore, the ability of a drug to block striatal dopamine receptors is a measure of its EPS liability.
# To assess the potency of drugs in blocking striatal dopamine receptors a procedure was used which was developed by Ungerstedt [Ungerstedt and Arbuthnott, Brain Res. 24 485 (1970); Ungerstedt, Acta physiol. scand., Suppl. 367, 49 (1971)] using rats with unilateral lesions of the substantia nigra induced by injection of 6-hydroxydopamine. This treatment causes degeneration of the nigrostriatal dopaminergic pathway accompanied by a marked decrease in the dopamine content of the neostriatum on the side of the lesion. Animals with this lesion develop postural and motor asymmetries which are altered by drugs which affect dopaminergic activity. Amphetamine, which releases dopmine and norepinephrine from catecholaminergic neurons, causes these rats to rotate unidirectionally toward the side of the lesion. Since there is a much larger amount of dopamine to be released by amphetamine from the intact nigrostriatal neurons on the non-lesioned side than from those remaining on the lesioned side, the rotational behavior is apparently due to the preponderance of activation of striatal dopamine receptors on the intact side. The ability of a drug to antagonize the rotational behavior is therefore a measure of its ability to block striatal dopamine receptors and is indicative of its potential to produce EPS.
# as §1
# [4] = piperidylidene derivatives (Table II)
Structure (SMILES),R/A ratio ([1]; clinically established antipsychotics (Table I)),propensity to cause EPS (extrapyramidal symptoms),ED50 [2],"R/A ratio [1, 4]","Antagonism of Amphetamine-induced Rotation, Rats, ED50 (R) [3]"
"CN1CCN(C2=Nc3cc(Cl)ccc3Nc3ccccc32)CC1 [Clozapine, reference compound]",3.8,known to produce EPS to a lesser extent than chlorpromazine,,,
CSc1ccc2c(c1)N(CCC1CCCCN1C)c1ccccc1S2 (stereo not drawn) [Thioridazine],,known to produce EPS to a lesser extent than chlorpromazine,,,
"CCCCN1CCC(=C2c3ccccc3Oc3ccc(Br)cc32)CC1 [XXXII, 4-(2-bromo-9-xanthenylidene)-1-n-butylpiperidine]",,,0.6 mg/kg,5.0,3.0 mg/kg
"CN1CCC(=C2c3ccccc3COc3cc(Cl)ccc32)CC1 [XXXIII, 4-(3-chloro-11(6H)-dibenz[b,e]oxepinylidene)-1-methylpiperidine]",,,7.5 mg/kg,> 3,> 25 mg/kg
